Data as given in ChEMBL document CHEMBL4507302, “Data for DCP probe TP-020” (2021).

Tests used:
[1] = system: Tyrosine-protein kinase ABL1 (Homo sapiens), P00519 [Q252H]; conditions: Compound concentration 1000.0 nM
[2] = target: Activin receptor type-2B (Homo sapiens) (UniProt Q13705); conditions: Compound concentration 1000.0 nM
[3] = target: Cyclin-dependent kinase 11B (Homo sapiens) (UniProt P21127); conditions: Compound concentration 1000.0 nM
[4] = target: Cyclin-dependent kinase 13 (Homo sapiens) (UniProt Q14004); conditions: Compound concentration 1000.0 nM
[5] = target: Cyclin-dependent kinase 9 (Homo sapiens) (UniProt P50750); conditions: Compound concentration 1000.0 nM
[6] = target: Serine/threonine-protein kinase Chk1 (Homo sapiens) (UniProt O14757); conditions: Compound concentration 1000.0 nM
[7] = target: Casein kinase I isoform epsilon (Homo sapiens) (UniProt P49674); conditions: Compound concentration 1000.0 nM
[8] = target: Casein kinase I isoform gamma-2 (Homo sapiens) (UniProt P78368); conditions: Compound concentration 1000.0 nM
[9] = target: Serine/threonine-protein kinase DCLK1 (Homo sapiens) (UniProt O15075); conditions: Compound concentration 1000.0 nM
[10] = system: Epidermal growth factor receptor (Homo sapiens), P00533 [UNDEFINED MUTATION]; conditions: Compound concentration 1000.0 nM
[11] = system: Epidermal growth factor receptor (Homo sapiens), P00533 [G719C]; conditions: Compound concentration 1000.0 nM
[12] = system: Epidermal growth factor receptor (Homo sapiens), P00533 [L858R]; conditions: Compound concentration 1000.0 nM
[13] = target: Eukaryotic translation initiation factor 2-alpha kinase 1 (Homo sapiens) (UniProt Q9BQI3); conditions: Compound concentration 1000.0 nM
[14] = target: Ephrin type-B receptor 3 (Homo sapiens) (UniProt P54753); conditions: Compound concentration 1000.0 nM
[15] = target: Fibroblast growth factor receptor 3 (Homo sapiens) (UniProt P22607); conditions: Compound concentration 1000.0 nM
[16] = system: Receptor-type tyrosine-protein kinase FLT3 (Homo sapiens), P36888 [N841I]; conditions: Compound concentration 1000.0 nM
[17] = system: eIF-2-alpha kinase GCN2 (Homo sapiens), Q9P2K8 [S808G]; conditions: Compound concentration 1000.0 nM
[18] = target: G protein-coupled receptor kinase 3 (Homo sapiens) (UniProt P35626); conditions: Compound concentration 1000.0 nM
[19] = target: Glycogen synthase kinase-3 alpha (Homo sapiens) (UniProt P49840); conditions: Compound concentration 1000.0 nM
[20] = target: Interleukin-1 receptor-associated kinase 1 (Homo sapiens) (UniProt P51617); conditions: Compound concentration 1000.0 nM
[21] = target: Mitogen-activated protein kinase kinase kinase kinase 3 (Homo sapiens) (UniProt Q8IVH8); conditions: Compound concentration 1000.0 nM
[22] = target: Dual specificity mitogen-activated protein kinase kinase 3 (Homo sapiens) (UniProt P46734); conditions: Compound concentration 1000.0 nM
[23] = target: Serine/threonine-protein kinase 4 (Homo sapiens) (UniProt Q13043); conditions: Compound concentration 1000.0 nM
[24] = target: Serine/threonine-protein kinase Nek10 (Homo sapiens) (UniProt Q6ZWH5); conditions: Compound concentration 1000.0 nM
[25] = target: Serine/threonine-protein kinase Nek6 (Homo sapiens) (UniProt Q9HC98); conditions: Compound concentration 1000.0 nM
[26] = target: Mitogen-activated protein kinase kinase kinase 14 (Homo sapiens) (UniProt Q99558); conditions: Compound concentration 1000.0 nM
[27] = target: Cyclin-dependent kinase 18 (Homo sapiens) (UniProt Q07002); conditions: Compound concentration 1000.0 nM
[28] = target: Phosphatidylinositol 3-kinase C2 domain-containing subunit gamma (Homo sapiens) (UniProt O75747); conditions: Compound concentration 1000.0 nM
[29] = system: Phosphatidylinositol 4,5-bisphosphate 3-kinase catalytic subunit alpha isoform (Homo sapiens), P42336 [I800L]; conditions: Compound concentration 1000.0 nM
[30] = target: Phosphatidylinositol 4,5-bisphosphate 3-kinase catalytic subunit gamma isoform (Homo sapiens) (UniProt P48736); conditions: Compound concentration 1000.0 nM
[31] = target: Protein kinase C eta type (Homo sapiens) (UniProt P24723); conditions: Compound concentration 1000.0 nM
[32] = target: cAMP-dependent protein kinase catalytic subunit PRKX (Homo sapiens) (UniProt P51817); conditions: Compound concentration 1000.0 nM
[33] = target: Serine/threonine-protein kinase PRP4 homolog (Homo sapiens) (UniProt Q13523); conditions: Compound concentration 1000.0 nM
[34] = target: Protein-tyrosine kinase 2-beta (Homo sapiens) (UniProt Q14289); conditions: Compound concentration 1000.0 nM
[35] = target: Proto-oncogene tyrosine-protein kinase ROS (Homo sapiens) (UniProt P08922); conditions: Compound concentration 1000.0 nM
[36] = target: Proto-oncogene tyrosine-protein kinase Src (Homo sapiens) (UniProt P12931); conditions: Compound concentration 1000.0 nM
[37] = target: Dual specificity testis-specific protein kinase 1 (Homo sapiens) (UniProt Q15569); conditions: Compound concentration 1000.0 nM
[38] = target: TGF-beta receptor type-1 (Homo sapiens) (UniProt P36897); conditions: Compound concentration 1000.0 nM
[39] = target: TRAF2 and NCK-interacting protein kinase (Homo sapiens) (UniProt Q9UKE5); conditions: Compound concentration 1000.0 nM
[40] = target: BDNF/NT-3 growth factors receptor (Homo sapiens) (UniProt Q16620); conditions: Compound concentration 1000.0 nM
[41] = target: Serine/threonine-protein kinase ULK3 (Homo sapiens) (UniProt Q6PHR2); conditions: Compound concentration 1000.0 nM
[42] = target: Serine/threonine-protein kinase 25 (Homo sapiens) (UniProt O00506); conditions: Compound concentration 1000.0 nM
[43] = target: Sodium-dependent dopamine transporter (Homo sapiens) (UniProt Q01959); conditions: Compound concentration 10.0 uM
[44] = target: Histamine H4 receptor (Homo sapiens) (UniProt Q9H3N8); conditions: Compound concentration 10.0 uM
[45] = target: Beta-2 adrenergic receptor (Homo sapiens) (UniProt P07550); conditions: Compound concentration 10.0 uM

Protein-tyrosine kinase 2-beta (Homo sapiens), sequence (Q14289 whole entry, looked up): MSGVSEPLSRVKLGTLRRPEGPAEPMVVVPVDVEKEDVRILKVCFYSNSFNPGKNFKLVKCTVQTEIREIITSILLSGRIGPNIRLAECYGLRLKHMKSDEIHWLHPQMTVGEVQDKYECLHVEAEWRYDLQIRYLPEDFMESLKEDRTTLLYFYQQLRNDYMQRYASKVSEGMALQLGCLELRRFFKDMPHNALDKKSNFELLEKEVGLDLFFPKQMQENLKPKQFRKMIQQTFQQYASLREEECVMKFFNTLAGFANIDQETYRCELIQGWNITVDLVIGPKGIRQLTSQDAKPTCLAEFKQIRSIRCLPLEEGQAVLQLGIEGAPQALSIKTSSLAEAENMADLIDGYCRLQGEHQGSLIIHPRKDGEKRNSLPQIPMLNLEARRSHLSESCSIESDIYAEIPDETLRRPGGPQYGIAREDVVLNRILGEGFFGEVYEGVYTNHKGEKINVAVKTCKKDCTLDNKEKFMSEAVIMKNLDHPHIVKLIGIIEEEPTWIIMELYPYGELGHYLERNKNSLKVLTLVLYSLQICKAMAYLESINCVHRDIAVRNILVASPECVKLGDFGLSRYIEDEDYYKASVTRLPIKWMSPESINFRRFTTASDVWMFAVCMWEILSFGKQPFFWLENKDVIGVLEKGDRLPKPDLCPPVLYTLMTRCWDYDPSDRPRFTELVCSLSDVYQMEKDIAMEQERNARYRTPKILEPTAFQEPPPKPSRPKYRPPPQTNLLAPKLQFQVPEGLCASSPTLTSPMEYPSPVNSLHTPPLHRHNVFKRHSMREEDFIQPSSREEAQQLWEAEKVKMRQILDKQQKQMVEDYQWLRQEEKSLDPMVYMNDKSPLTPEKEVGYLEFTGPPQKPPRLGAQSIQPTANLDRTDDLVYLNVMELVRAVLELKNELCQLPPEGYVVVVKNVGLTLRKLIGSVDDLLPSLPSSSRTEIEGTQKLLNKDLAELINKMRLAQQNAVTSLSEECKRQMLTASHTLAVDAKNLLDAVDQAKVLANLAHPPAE
Protein kinase C eta type (Homo sapiens), sequence (P24723 whole entry): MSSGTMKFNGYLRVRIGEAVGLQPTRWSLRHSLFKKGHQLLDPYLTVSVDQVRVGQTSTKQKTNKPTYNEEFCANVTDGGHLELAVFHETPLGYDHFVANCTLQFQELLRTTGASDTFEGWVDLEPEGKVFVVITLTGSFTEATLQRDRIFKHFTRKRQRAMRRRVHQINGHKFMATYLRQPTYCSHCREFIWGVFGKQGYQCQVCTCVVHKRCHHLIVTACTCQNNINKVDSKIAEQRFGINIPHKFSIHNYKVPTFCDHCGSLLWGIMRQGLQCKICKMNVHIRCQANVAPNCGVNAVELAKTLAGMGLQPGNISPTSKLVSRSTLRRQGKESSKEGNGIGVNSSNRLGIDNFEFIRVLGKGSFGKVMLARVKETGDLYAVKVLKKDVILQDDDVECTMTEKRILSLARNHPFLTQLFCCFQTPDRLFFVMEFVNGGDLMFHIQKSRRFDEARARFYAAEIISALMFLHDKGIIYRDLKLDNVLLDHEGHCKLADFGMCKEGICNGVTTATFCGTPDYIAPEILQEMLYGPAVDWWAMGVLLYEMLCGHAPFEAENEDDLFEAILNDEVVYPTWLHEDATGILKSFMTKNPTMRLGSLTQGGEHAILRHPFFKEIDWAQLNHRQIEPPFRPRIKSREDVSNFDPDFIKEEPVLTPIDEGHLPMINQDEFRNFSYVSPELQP
Serine/threonine-protein kinase 4 (Homo sapiens), sequence (Q13043 whole entry): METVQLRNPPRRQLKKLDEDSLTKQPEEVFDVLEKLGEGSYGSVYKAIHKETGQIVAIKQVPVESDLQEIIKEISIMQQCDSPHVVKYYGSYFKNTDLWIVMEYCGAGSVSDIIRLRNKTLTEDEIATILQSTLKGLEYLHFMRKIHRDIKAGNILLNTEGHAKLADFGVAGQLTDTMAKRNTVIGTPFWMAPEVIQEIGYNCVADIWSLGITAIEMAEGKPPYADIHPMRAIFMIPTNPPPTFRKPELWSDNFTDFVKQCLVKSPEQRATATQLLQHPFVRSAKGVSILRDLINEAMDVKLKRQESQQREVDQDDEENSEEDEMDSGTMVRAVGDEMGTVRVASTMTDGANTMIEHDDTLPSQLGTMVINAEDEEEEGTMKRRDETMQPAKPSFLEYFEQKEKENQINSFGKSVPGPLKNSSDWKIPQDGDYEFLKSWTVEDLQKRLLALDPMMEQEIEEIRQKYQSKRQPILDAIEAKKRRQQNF
Phosphatidylinositol 4,5-bisphosphate 3-kinase catalytic subunit gamma isoform (Homo sapiens), sequence (P48736 whole entry, looked up, canonical isoform): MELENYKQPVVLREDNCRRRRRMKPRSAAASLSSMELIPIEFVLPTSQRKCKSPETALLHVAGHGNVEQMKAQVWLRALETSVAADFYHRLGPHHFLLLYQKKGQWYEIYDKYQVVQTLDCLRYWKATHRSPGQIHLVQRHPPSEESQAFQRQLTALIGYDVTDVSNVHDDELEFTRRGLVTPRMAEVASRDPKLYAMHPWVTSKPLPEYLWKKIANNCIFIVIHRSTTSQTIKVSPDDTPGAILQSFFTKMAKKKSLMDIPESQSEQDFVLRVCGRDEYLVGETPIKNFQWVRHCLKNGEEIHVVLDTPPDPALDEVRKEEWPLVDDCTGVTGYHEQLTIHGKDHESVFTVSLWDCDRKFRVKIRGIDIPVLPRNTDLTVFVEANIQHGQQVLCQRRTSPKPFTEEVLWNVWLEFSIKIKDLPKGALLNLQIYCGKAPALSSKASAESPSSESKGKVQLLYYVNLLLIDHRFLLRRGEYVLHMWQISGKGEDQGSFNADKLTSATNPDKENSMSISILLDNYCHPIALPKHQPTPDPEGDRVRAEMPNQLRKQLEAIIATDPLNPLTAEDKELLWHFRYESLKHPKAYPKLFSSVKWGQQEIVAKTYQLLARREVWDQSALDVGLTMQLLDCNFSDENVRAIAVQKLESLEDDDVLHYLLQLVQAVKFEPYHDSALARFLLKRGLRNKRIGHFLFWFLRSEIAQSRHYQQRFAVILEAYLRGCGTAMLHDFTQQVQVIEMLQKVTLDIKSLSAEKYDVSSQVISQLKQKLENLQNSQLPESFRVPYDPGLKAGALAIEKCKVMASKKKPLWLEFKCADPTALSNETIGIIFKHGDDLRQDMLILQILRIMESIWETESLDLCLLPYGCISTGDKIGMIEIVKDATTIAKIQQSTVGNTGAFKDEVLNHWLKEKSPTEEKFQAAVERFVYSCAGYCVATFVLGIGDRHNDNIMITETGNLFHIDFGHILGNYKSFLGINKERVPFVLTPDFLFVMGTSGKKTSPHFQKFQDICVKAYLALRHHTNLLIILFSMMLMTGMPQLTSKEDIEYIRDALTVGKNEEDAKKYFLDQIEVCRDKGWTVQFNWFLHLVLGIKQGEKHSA
Serine/threonine-protein kinase PRP4 homolog (Homo sapiens), sequence (Q13523 whole entry): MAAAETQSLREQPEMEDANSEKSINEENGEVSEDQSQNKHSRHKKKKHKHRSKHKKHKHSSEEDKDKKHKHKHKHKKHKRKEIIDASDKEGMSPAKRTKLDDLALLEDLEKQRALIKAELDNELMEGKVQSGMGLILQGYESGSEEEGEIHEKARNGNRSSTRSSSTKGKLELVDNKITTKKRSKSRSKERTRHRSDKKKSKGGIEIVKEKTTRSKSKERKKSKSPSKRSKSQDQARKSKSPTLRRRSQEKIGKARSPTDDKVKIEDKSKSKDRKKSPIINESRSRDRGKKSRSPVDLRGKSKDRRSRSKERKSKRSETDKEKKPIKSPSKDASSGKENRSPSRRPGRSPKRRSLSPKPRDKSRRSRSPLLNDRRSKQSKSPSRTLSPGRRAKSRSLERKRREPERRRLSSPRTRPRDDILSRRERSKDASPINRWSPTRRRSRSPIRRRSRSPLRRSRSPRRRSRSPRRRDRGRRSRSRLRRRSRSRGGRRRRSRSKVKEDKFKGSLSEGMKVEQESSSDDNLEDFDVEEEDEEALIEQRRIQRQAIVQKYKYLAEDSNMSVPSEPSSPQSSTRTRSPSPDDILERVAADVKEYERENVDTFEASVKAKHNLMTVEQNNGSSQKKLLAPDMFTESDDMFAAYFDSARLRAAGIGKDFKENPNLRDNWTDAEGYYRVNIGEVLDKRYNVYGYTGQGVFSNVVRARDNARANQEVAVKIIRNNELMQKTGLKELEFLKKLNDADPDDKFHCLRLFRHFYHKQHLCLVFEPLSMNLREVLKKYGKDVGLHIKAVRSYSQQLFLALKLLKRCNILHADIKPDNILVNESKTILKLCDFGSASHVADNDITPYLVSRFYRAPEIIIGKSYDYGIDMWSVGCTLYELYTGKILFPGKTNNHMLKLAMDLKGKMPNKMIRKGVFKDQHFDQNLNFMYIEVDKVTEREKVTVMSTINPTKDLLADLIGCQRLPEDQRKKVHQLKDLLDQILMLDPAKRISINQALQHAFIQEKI
BDNF/NT-3 growth factors receptor (Homo sapiens), sequence (Q16620 32-822 limits assumed): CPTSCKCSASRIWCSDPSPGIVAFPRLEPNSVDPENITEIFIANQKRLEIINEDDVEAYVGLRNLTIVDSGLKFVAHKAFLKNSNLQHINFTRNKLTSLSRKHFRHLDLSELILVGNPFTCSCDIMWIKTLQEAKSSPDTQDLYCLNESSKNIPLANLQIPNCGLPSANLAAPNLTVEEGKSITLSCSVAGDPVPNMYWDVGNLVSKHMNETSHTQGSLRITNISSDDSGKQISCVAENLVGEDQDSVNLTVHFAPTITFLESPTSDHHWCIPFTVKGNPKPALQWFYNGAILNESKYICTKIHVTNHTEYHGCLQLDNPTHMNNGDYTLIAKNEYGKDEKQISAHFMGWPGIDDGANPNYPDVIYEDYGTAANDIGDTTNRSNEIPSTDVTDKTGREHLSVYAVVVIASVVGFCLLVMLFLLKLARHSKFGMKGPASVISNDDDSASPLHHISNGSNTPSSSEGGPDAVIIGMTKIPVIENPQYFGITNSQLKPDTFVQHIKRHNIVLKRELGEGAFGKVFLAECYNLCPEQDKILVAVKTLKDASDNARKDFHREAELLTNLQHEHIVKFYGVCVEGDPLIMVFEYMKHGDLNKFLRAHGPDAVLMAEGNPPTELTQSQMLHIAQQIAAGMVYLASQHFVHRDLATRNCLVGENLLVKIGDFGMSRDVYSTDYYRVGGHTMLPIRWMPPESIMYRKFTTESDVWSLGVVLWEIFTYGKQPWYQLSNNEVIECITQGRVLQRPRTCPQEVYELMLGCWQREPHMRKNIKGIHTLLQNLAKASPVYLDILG

Nc1cnc(N2CCc3cc(S(=O)(=O)Nc4c(F)cc(Cl)cc4F)cc(N4CCCC4=O)c32)nc1
inactive: residual activity [1] 98% | residual activity [2] 80% | residual activity [3] 100% | residual activity [4] 100% | residual activity [5] 100% | residual activity [6] 95% | residual activity [7] 89% | residual activity [8] 88% | residual activity [9] 100% | residual activity [10] 74% | residual activity [11] 100% | residual activity [12] 85% | residual activity [13] 94% | residual activity [14] 100% | residual activity [15] 100% | residual activity [16] 89% | residual activity [17] 100% | residual activity [18] 100% | residual activity [19] 100% | residual activity [20] 100% | residual activity [21] 93% | residual activity [22] 100% | residual activity [23] 100% | residual activity [24] 100% | residual activity [25] 100% | residual activity [26] 75% | residual activity [27] 100% | residual activity [28] 78% | residual activity [29] 80% | residual activity [30] 81% | residual activity [31] 80% | residual activity [32] 99% | residual activity [33] 76% | residual activity [34] 100% | residual activity [35] 99% | residual activity [36] 99% | residual activity [37] 100% | residual activity [38] 100% | residual activity [39] 100% | residual activity [40] 100% | residual activity [41] 100% | residual activity [42] 88% | inhibition [43] 20.2% | inhibition [44] -0.37% | inhibition [45] -3.08%

Cn1nc(C(F)(F)F)cc1-c1cnc(N2CCc3cc(S(=O)(=O)Nc4c(F)cc(Cl)cc4F)cc(N4CCCC4=O)c32)nc1 [TP-020]
inactive: residual activity [1] 99% | residual activity [2] 87% | residual activity [3] 100% | residual activity [4] 79% | residual activity [5] 100% | residual activity [6] 100% | residual activity [7] 86% | residual activity [8] 100% | residual activity [9] 93% | residual activity [10] 100% | residual activity [11] 100% | residual activity [12] 100% | residual activity [13] 100% | residual activity [14] 95% | residual activity [15] 100% | residual activity [16] 94% | residual activity [17] 100% | residual activity [18] 82% | residual activity [19] 95% | residual activity [20] 72% | residual activity [21] 84% | residual activity [22] 82% | residual activity [23] 92% | residual activity [24] 80% | residual activity [25] 100% | residual activity [26] 79% | residual activity [27] 100% | residual activity [28] 94% | residual activity [29] 77% | residual activity [30] 88% | residual activity [31] 90% | residual activity [32] 97% | residual activity [33] 100% | residual activity [34] 100% | residual activity [35] 100% | residual activity [36] 100% | residual activity [37] 86% | residual activity [38] 100% | residual activity [39] 100% | residual activity [40] 75% | residual activity [41] 100% | residual activity [42] 100% | inhibition [43] 14.5% | inhibition [44] 10.9% | inhibition [45] 17.4%
